Source: patent publication US20230024554A1, “METHOD OF CHARACTERIZING THE BINDING CHARACTERISTICS BETWEEN A PEPTIDE OF INTEREST AND MHC MOLECULES” (Immatics Biotechnologies GmbH, priority 2021, published 2023)
Ends that are not written are not given here.

How the values were obtained:
T2 cells = assay: Peptide loading of T2 cells with KLK3 peptide isotopologues; absolute pMHC copy numbers by BB7.2 immunoprecipitation and LC/MS; type: cell-based, human; settings: T2 cells loaded at 0.1 μg/mL (~81 nM) peptide, 2 h incubation
Description: In order to translate detected relative ion intensities into an absolute measure, isotopologue-specific external calibration curves were acquired in two technical replicates. Therefore, a total of six different isotopologues (Table 1; reconstituted as described above) were mixed to a final concentration of 20 pmol μL^−1. This stock was subsequently further titrated in 5% formic acid prior to LC/MS analysis. The internal standard KLK3 peptide_L2P5 was added at a constant amount of 5 fmol per LC/MS injection. Samples were separated by reversed-phase chromatography (nanoAcquity UPLC, Waters, Milford, Mass.) using ACQUITY UPLC BEH C18 columns (75 μm×250 mm, Waters, Milford, Mass.) and a gradient ranging from 1 to 34.5% ACN over the course of 35 min. Mass spectrometry was performed on an online coupled Orbitrap Fusion Tribrid mass spectrometer (Thermo Fisher Scientific, Waltham, Mass.) in scheduled parallel reaction monitoring (sPRM) mode following collisional-induced dissociation (CID) of selected precursor ions. Subsequent peak boundary integration was performed in Skyline (MacLean et al., 2010).
The T2 cell line was obtained from DSMZ (ACC 598, lot #2). Cells were cultured in RPMI-1640 medium (Gibco, #A1049101) supplemented with 10% heat-inactivated FBS (Gibco, #10270106) in absence of antibiotics, at 37° C. in a humidified atmosphere containing 5% C02. […]

Hs695T cells = assay: Peptide loading of Hs695T cells with PRAME peptide isotopologues; absolute copy numbers by AbsQuant (immunoprecipitation and LC/MS); type: cell-based; settings: peptide-loaded Hs695T cells; 1 nM is ~0.001 μg/mL
Description: (§1) In order to translate detected relative ion intensities into an absolute measure, isotopologue-specific external calibration curves were acquired in two technical replicates. Therefore, a total of seven different isotopologues (Table 2; reconstituted as described above) were mixed to a final concentration of 20 pmol μL^−1. This stock was subsequently further titrated in 5% formic acid prior to LC/MS analysis. The internal standard PRAME peptide_L3L6 was added at a constant amount of 100 fmol per LC/MS injection. Samples were separated by reversed-phase chromatography (nanoAcquity UPLC, Waters, Milford, Mass.) using ACQUITY UPLC BEH C18 columns (75 μm×250 mm, Waters, Milford, Mass.) and a gradient ranging from 1 to 34.5% ACN over the course of 35 min. […]
(§2) The functional analysis of PRAME-loaded T98G cells was assessed in a co-culture setup. […]
(§3) In brief, 2.5×10^7 T98G (or 2×10^7 Hs695T) cells were incubated in 40 ml DMEM+10% FCS supplemented with the respective concentration of peptide for 2 h at 37° C., 5% C02. […] By adding specific substrate, the amount of LDH present in the supernatant was determined by measuring the colorimetric signal in a microplate reader. […]

T98G cells = assay: Peptide loading of T98G cells with PRAME peptide isotopologues; absolute copy numbers by AbsQuant (immunoprecipitation and LC/MS); type: cell-based; settings: peptide-loaded T98G cells; 1 nM is ~0.001 μg/mL
Description: as §1, §2, §3

| Substance | absolute peptide abundance (T2 cells) | loading concentration from which copy numbers are detectable (Hs695T cells) [nM] | loading concentration from which copy numbers are detectable (T98G cells) [nM] |
| --- | --- | --- | --- |
| SL*F*HPEDTGQV* [KLK3 peptide L2F3V 11] | ~10,000 copies per cell | – | – |
| SLLQHLIGL (not fully specified; listed as Homo sapiens) [PRAME peptide, PRAME-derived MHC-restricted peptide, loaded as isotopologues] | – | ≥ 1 | ≥ 1 |
